Assay results taken from US9080220B2 (priority 2006, dated 2015).
Like-named read-outs stand apart in the source and are kept apart here.

Test system: inflammatory hyperalgesia induced by carrageenan on a rat's paw
Set-up: species or system rat (male Sprague Dawley)
Conditions: in vivo, ip

CN1CC[C@]23c4c5ccc(O)c4O[C@H]2[C@@H](O)C=C[C@H]3[C@H]1C5 [morphine]
protection against hyperalgesia induced by carrageenan (0.3 mg/kg): does not induce statistically significant protection | increase of pain threshold following a mechanical stimulus applied to the rats' paws (1 mg/kg): 65% | increase of pain threshold following a mechanical stimulus applied to the rats' paws (3 mg/kg): 97%
